Here are results for three compounds from PMC10745061 (Marine Drugs, 2023).

Entries after “also recorded” stand apart in the source; their conditions may differ. Like-named read-outs stand apart in the source and are kept apart here. Where a SMILES comes first, the peptide text is derived from it. Bridges are numbered along the chain shown (N, C = ends).

The test system of data set [1] is E. coli K12 SBS 1936 biofilm. In words: Effect on established biofilm, MTT assay. The conditions noted are these: wide concentration range, 24 h pre-formed biofilm, 16 h treatment in LB, 37 °C. The data set is classed as cell-based, Escherichia coli. The procedure: Bacterial biofilms play an important role in UTIs, being responsible for their persistence. Therefore, the eradication of mature biofilms is an extremely challenging task because high concentrations or doses of antibacterial agents are required. Here, the ability of HfBRI-25 to disrupt established biofilms was evaluated as a number of viable bacteria in biofilm using the MTT assay. According to our previous data, E. coli K12 SBS 1936 was chosen as a strong biofilm-producer that can form it in different media.
E. coli K12 SBS1936 was grown in LB broth overnight at 37 °C and diluted in the same media to obtain 1 × 10^6 CFU/mL. A total of 100 μL of bacterial suspension was added to each well of the 96-well polystyrene plate and grown at 32 °C and 120 rpm for 24 h. The wells were washed twice with sterile water to remove non-adherent cells. In parallel, 100 μL of peptide or ciprofloxacin solutions, serially diluted in LB medium using a separate 96-well polystyrene plate, were added to each well with pre-formed biofilm and incubated at 37 °C and 180 rpm for 16 h. Biofilm viability was assessed by using the MTT reagent (Sigma). […] Absorbance of each well was measured at 570 nm. Bacterial survival was calculated as a percentage relative to samples without antimicrobial agent. […]

The next data set has as its system E. coli ATCC 25922. The conditions noted are these: BALB/c mice, n = 5, i.p. infection 10^6 CFU with 2.5% mucin; 10 mg/kg i.p. at 1 h and 4 h after infection; 7 days.
For data set [2] the following is noted: 25% human serum in PBS pH 7.4, 37 °C, RP-HPLC, ratio estimated from MALDI-TOF MS, two independent experiments.
Data set [3] is described as follows: 25% human serum in PBS (pH 7.4) from healthy donor. The conditions noted are these: 37 °C, up to 24 h.
The test system of another data set is trypsin. In words: trypsin in 100 mM Tris/HCl buffer (pH 8.0). The conditions noted are these: 37 °C, up to 16 h.

Regarding `O=C(O)c1cn(C2CC2)c2cc(N3CCNCC3)c(F)cc2c1=O` [ciprofloxacin, reference compound], the “Anti-biofilm efficiency (bacterial viability inside established biofilm)” value in data set [1] is given as “high efficiency at a wide concentration range”. Also, in the data set with E. coli ATCC 25922, the “Survival / therapeutic efficacy” value is reported as “survival of all mice”.
With `CC[C@H](C)[C@@H]1NC(=O)[C@H](Cc2c[nH]c3ccccc23)NC(=O)[C@H](C(C)C)NC(=O)[C@@H]2CSSC[C@H](NC(=O)[C@H](CCCNC(=N)N)NC(=O)[C@H](CCCNC(=N)N)NC(=O)[C@H](C(C)C)NC(=O)[C@H](CCCNC(=N)N)NC(=O)[C@H](CCCNC(=N)N)NC(=O)CNC(=O)[C@H](CC(N)=O)NC(=O)[C@H](C(C)C)NC(=O)[C@H](CO)NC1=O)C(=O)N[C@@H](Cc1c[nH]c3ccccc13)C(=O)NCC(=O)N[C@@H](CO)C(=O)NCC(=O)N[C@H](C(=O)O)CSSC[C@H](NC(=O)CNC(=O)[C@@H](N)CCCNC(=N)N)C(=O)N[C@@H](Cc1ccccc1)C(=O)N2` [form “b”] (H-RGCFCVWISVNGRRVRRCWGSGC-OH; disulfide 3-23, 5-18; N-terminus and C-terminus assumed), the “a/b (%), ratio of the peptide forms in serum” value in data set [2] (time 0 h) is listed as 0%; in data set [2] (time 1 h), 61%; in data set [2] (time 3 h), 94%; in data set [2] (time 24 h) it was 100%.
Regarding SPRGCFCVWISVNGRRVRRCWGSGC, the cleaved bond result in data set [3] is recorded as “Pro2-R3, major, 1 h”. The fragment found entry in the data set with trypsin was “(4–16), major; also recorded: (19–25), major”.
